We go through 17 molecules from article PMC10246557, “Kinetic and inhibition studies on human Jumonji-C (JmjC) domain-containing protein 5” (RSC Chemical Biology, 2023).

Where two headings read alike, the source gives them in different places.

One assay has as its target T1, human KDM4E (Homo sapiens, UniProt B2RXH2).
T1 sequence (B2RXH2 1-506): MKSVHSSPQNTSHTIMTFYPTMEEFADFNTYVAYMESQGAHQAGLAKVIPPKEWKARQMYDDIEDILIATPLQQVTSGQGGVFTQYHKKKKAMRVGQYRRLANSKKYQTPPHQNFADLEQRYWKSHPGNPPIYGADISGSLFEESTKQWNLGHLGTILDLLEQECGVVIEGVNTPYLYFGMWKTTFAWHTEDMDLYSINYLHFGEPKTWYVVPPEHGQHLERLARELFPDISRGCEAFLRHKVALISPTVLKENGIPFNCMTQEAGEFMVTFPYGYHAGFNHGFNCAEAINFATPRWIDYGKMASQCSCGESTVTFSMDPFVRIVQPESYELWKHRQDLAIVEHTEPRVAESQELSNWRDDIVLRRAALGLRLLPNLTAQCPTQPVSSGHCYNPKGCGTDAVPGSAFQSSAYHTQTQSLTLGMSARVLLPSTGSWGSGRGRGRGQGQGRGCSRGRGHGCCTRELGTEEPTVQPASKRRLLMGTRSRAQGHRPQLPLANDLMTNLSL
The assay is described as follows: KDM4E SPE-MS turnover and kinetic assay (H3 K9(me3) peptide demethylation). The format is biochemical. The note with it: for K app m / k app cat: 0.15 μM KDM4E, ARTAQTARK(me3)STGGIA 10 μM. As for the experimental part:
KDM4E turnover and inhibition assays were performed as reported using recombinant human KDM4E and a histone 3 K9(me3) derivative (i.e. […](me3)STGGIA)[41] as substrate.[95]
Supplementary Figure S3. Rates of KDM4E-catalyzed Nε-trimethyl lysine demethylations of a histone 3- […]
Maximum velocities (vapp ) and Michaelis […]
catalyzed Nε-trimethyl lysine demethylation of the histone 3 K9(me3)-derived peptide […]
(me3)STGGIA2 by SPE-MS as described;3 note that mono-, di-, and tri-demethylated product […]
buffer (50 mM MES, pH 7.0, 20 °C). Measurement times were normalized to the first sample injection analyzed […]
(§1) Data are shown as the mean of three independent runs (n = 3; mean ± SD).
(a) Time course of the KDM4E-catalyzed Nε-trimethyl lysine demethylation reaction of the […]

The next assay relates to human AspH. The conditions noted are these: absence of 2OG; AspH 0.1 μM, 2OG derivative 330 μM, Fe(II) 50 μM, hFX-CP101–119 2.0 μM; cited from earlier work.
The subject of another assay is human FIH. The note with it: FIH 0.15 μM, cited from earlier work; for FIH (%): substrate hydroxylation with the compound as cosubstrate: absence of 2OG, 2OG derivative 330 μM, Fe(II) 50 μM, HIF-1α788–822 5.0 μM; for K m / k cat: HIF-1α788–822 substrate.
A further assay concerns the target T2, human JMJD5 (Homo sapiens, UniProt Q8N371).
T2 construct: made in house; host or cells: Escherichia coli BL21(DE3)
The assay is described as follows: SPE-MS JMJD5 turnover and kinetic assay (RPS6_128–148 hydroxylation). The format is biochemical. The conditions noted are these: for JMJD5 (%): RPS6_128–148 hydroxylation with the compound as cosubstrate: absence of 2OG, JMJD5 0.15 μM, 2OG derivative 400 μM, Fe(II) 20 μM, RPS6_128–148 2.0 μM. As for the experimental part: JMJD5 turnover assays for time course and kinetic experiments were performed in 96-well polypropylene assay plates (Greiner) with either […] total reaction volume using the concentrations given in the manuscript or ESI, ^† and JMJD5-catalysed substrate hydroxylation was directly monitored using SPE-MS. […] Assay samples were aspirated under vacuum for 0.6 s and loaded onto a C4 solid phase extraction (SPE) cartridge. After loading, the C4 SPE cartridge was washed with 0.1%v/v aqueous formic acid to remove non-volatile buffer salts (5.5 s, 1.5 mL min^−1). The peptide was eluted from the SPE cartridge with 0.1%v/v aqueous formic acid in 80/20v/v acetonitrile/water into the mass spectrometer (5.5 s, 1.5 mL min^−1) and the SPE cartridge re-equilibrated with 0.1%v/v aqueous formic acid (0.5 s, 1.5 mL min^−1). The mass spectrometer was operated using the MassHunter Workstation B.08.00 software (Agilent), the mass spectrometer parameters were: capillary voltage (4000 V), nozzle voltage (1000 V), fragmentor voltage (365 V), gas temperature (280 °C), gas flow (13 L min^−1), sheath gas temperature (350 °C), sheath gas flow (12 L min^−1). […] Data were exported into Microsoft Excel and used to calculate the % conversion of the hydroxylation reaction using the equation: % conversion = 100 × (integral product peptide)/(integral substrate peptide + integral product peptide).
parameters (continues on the following two pages). Maximum velocities (vapp ) and Michaelis constants (Kapp)
of JMJD5 were determined in independent triplicates, monitoring the JMJD5-catalyzed hydroxylation of the
SPE-MS, as described (Experimental Section).
20 °C). Measurement times were normalized to the first sample injection analyzed after the addition of JMJD5 to
shown as the mean of three independent runs (n = 3; mean ± standard deviation, SD).
hexahydrate (20 μM, (NH4)2Fe(SO4)2·6H2O); and (b) hydroxylation rates used to determine kinetic parameters of
(1 picture or pasted object on this page, not shown here)
Maximum velocities (vapp ) and
Michaelis constants (Kapp) of JMJD5 were determined in independent triplicates for (1R)-3-
(carboxycarbonyl)cyclopentane-1-carboxylic acid (14), monitoring the JMJD5-catalyzed hydroxylation of the
as described (Experimental Section).
pH 7.5, 20 °C). Measurement times were normalized to the first sample injection analyzed after the addition of
as §1
to determine kinetic parameters of JMJD5 for 14.

Where [1] appears, read: absence of 2OG, KDM4E 0.15 μM, 2OG derivative 330 μM, Fe(II) 50 μM, ARTAQTARK(me3)STGGIA 10.0 μM.

T2 sequence (Q8N371 whole entry): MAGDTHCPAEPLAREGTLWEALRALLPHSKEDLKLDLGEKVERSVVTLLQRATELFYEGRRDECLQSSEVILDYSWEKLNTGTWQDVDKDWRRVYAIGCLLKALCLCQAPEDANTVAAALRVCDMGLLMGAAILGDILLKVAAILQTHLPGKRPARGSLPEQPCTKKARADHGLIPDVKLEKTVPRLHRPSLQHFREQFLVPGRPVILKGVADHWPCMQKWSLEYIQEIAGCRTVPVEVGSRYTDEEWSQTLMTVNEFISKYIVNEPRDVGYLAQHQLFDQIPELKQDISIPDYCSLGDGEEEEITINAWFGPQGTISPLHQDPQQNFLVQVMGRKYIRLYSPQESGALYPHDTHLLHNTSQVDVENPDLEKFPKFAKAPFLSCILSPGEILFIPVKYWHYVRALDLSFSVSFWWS

For `CC1(C)C(C(=O)O)C1C(=O)C(=O)O` (mixture of isomers) [Entry 21], the “KDM4E (%): substrate demethylation with the compound as cosubstrate” value (“KDM4E (%): substrate demethylation” for short) at human KDM4E (setting [1]) was under 1%. Besides, in the assay on human AspH, the “AspH (%): substrate hydroxylation with the compound as cosubstrate” value (shortened to “AspH (%): substrate hydroxylation”) is given as under 1%. In the assay on human FIH, the “FIH (%): substrate hydroxylation with the compound as cosubstrate” value (shortened to “FIH (%): substrate hydroxylation”) is under 1%. Further, on human JMJD5, the “JMJD5 (%): RPS6_128–148 hydroxylation with the compound as cosubstrate” value (“JMJD5 (%): RPS6_128–148 hydroxylation” below) is reported as under 1%.
`CC(C)CC(CC(=O)C(=O)O)C(=O)O` (racemic) [Entry 16]: the “KDM4E (%): substrate demethylation” value on human KDM4E (setting [1]) is under 1%. In the assay with human AspH, the “AspH (%): substrate hydroxylation” value is recorded as under 1%. Besides, the “FIH (%): substrate hydroxylation” value in the assay on human FIH was under 1%. Moreover, the “JMJD5 (%): RPS6_128–148 hydroxylation” value at human JMJD5 is recorded as under 1%.
Turning to `CC(C)(C)CCC(CC(=O)C(=O)O)C(=O)O` (racemic) [Entry 17], at human KDM4E (setting [1]), the “KDM4E (%): substrate demethylation” value is under 1%. The “AspH (%): substrate hydroxylation” value in the assay with human AspH was under 1%. The “FIH (%): substrate hydroxylation” value with human FIH is reported as under 1%. Besides, the “JMJD5 (%): RPS6_128–148 hydroxylation” value on human JMJD5 is under 1%.
For `O=C(O)C(=O)CC(Cc1ccccc1)C(=O)O` (racemic) [Entry 19], the “KDM4E (%): substrate demethylation” value on human KDM4E (setting [1]) is under 1%. In addition, the “AspH (%): substrate hydroxylation” value in the assay with human AspH is listed as under 1%. Moreover, the “FIH (%): substrate hydroxylation” value with human FIH was under 1%. In addition, the “JMJD5 (%): RPS6_128–148 hydroxylation” value at human JMJD5 was under 1%.
As for `O=C(O)CCC(=O)C(=O)O` [C00001], the “KDM4E (%): substrate demethylation” value on human KDM4E is listed as “∼70%”. Further, in the assay on human FIH, the “FIH (%): substrate hydroxylation” value is given as “∼50%”. Also, the “JMJD5 (%): RPS6_128–148 hydroxylation” value on human JMJD5 is “∼40%”.
`CC(C)(CC(=O)C(=O)O)C(=O)O` [C00002]: the “KDM4E (%): substrate demethylation” value at human KDM4E (setting [1]) was under 1%.
For the molecule `CC(CC(=O)O)C(=O)C(=O)O` (centres unmarked) [C00003], the “KDM4E (%): substrate demethylation” value at human KDM4E (setting [1]) was “∼10%”. Also, in the assay on human AspH, the “AspH (%): substrate hydroxylation” value is reported as over 95%. Besides, the “FIH (%): substrate hydroxylation” value with human FIH is reported as “∼55%”. In addition, on human JMJD5, the “JMJD5 (%): RPS6_128–148 hydroxylation” value is on record as “∼10%”.
In the case of `CCC(CC(=O)C(=O)O)C(=O)O` (centres unmarked) [C00004], on human KDM4E (setting [1]), the “KDM4E (%): substrate demethylation” value is reported as under 1%. Also, the “AspH (%): substrate hydroxylation” value with human AspH is under 1%. Besides, the “FIH (%): substrate hydroxylation” value in the assay with human FIH is on record as “∼10%”. Also, the “JMJD5 (%): RPS6_128–148 hydroxylation” value on human JMJD5 was “∼10%”.
For `CCC(CC(=O)O)C(=O)C(=O)O` (centres unmarked) [C00005], the “KDM4E (%): substrate demethylation” value on human KDM4E (setting [1]) was under 1%. The “AspH (%): substrate hydroxylation” value in the assay on human AspH is listed as under 1%. The “FIH (%): substrate hydroxylation” value in the assay with human FIH is on record as “∼2%”. Further, the “JMJD5 (%): RPS6_128–148 hydroxylation” value on human JMJD5 was under 1%.
On to `O=C(O)C(=O)C1CC[C@@H](C(=O)O)C1` (some centres unmarked) [C00012], for which the “KDM4E (%): substrate demethylation” value on human KDM4E (setting [1]) is listed as under 1%. Besides, the “AspH (%): substrate hydroxylation” value in the assay with human AspH is given as “∼15%”. Besides, the “FIH (%): substrate hydroxylation” value in the assay on human FIH is “∼2%”.
With `O=C(O)CCC(=O)C(=O)O` [C00019], the K app m on human JMJD5 (0.15 μM JMJD5, 50 mM MOPS pH 7.5, 20 °C, LAA present) came out at 0.29 ± 0.04 µM. At human JMJD5 (0.15 μM JMJD5, 50 mM MOPS pH 7.5, 20 °C, LAA present, calculated from vmax), the k app cat is 0.0056 ± 0.0002 s⁻¹.
As for `O=C(O)CCC(=O)C(=O)O` [C00021], in the assay on human FIH, the K m is 0.8 ± 0.1 µM and the k cat was 0.04 ± 0.01 s⁻¹.
With `O=C(O)C(=O)C1CC[C@@H](C(=O)O)C1` (some centres unmarked) [C00022], in the assay with human FIH, the K m was 14.8 ± 2.6 µM and the k cat was 0.01 ± 0.001 s⁻¹.
At human KDM4E, `O=C(O)CCC(=O)C(=O)O` [C00023] yielded a K app m of 4.2 ± 1.1 µM and a k app cat of 0.14 ± 0.01 s⁻¹.
For `O=C(O)C(=O)C1CC[C@@H](C(=O)O)C1` (some centres unmarked) [C00024], at human KDM4E, the K app m entry was “No reaction” and the k app cat entry is recorded as “No reaction”.
As for `O=C1O[C@H]([C@@H](O)CO)C(O)=C1O` [LAA, L-ascorbic acid, reference compound], on human JMJD5, the “cosubstrate/cofactor role for JMJD5” value is “not a cosubstrate/cofactor”.
Take “RCCD1_134–150: RCCD1 amino acids 134–150, LPLLPCARAYVSPRAPF, JMJD5 substrate peptide [reference compound]”: the “JMJD5-catalyzed hydroxylation of the substrate peptide” value with human JMJD5 (after 1 h incubation, 50 mM MOPS pH 7.5, 20 °C) was under 10%.
